Assay [1] relates to chick embryos dorsal root ganglia. As to the kind of experiment: chick embryo dorsal root ganglion cultures free of serum, neurite process scoring. Type of assay: cell-based. The settings on record: 48 h; for Average scoring: score 0-3 of neurite processes, average of 20 ganglia, NGF-only control 1.0. How it is done:
The neurotrophic activity of compounds of the present invention can be determined through several biological models in vitro, e.g. the model of chick embryos dorsal root ganglion cultures free of serum in vitro.
In a sterile environment, dorsal root ganglia were dissected from chick embryos of 8 days gestation and inoculated in rat rail collagen coated culture bottles (5 to 6 dorsal root ganglia per bottle, and two bottles per dosage). After 1 hour of attachment in a 37° C., 5% CO2 incubator, NGF (0.30 ng/ml) containing culture medium free of serum (DMEM) and the compound of example 4 of the present invention were added. The control groups were treated only with the same amount of NGF and culture medium. […] The representative micrographic pictures showing that compound of example 4 promotes the growth of chick embryos dorsal root ganglia processes were give in FIG. 1. The results of illustrative compound of example 4 at different concentrations promoting the growth of chick embryos dorsal root ganglia processes were outlined in table 1, wherein the scoring is the average scoring of 20 ganglia.

For assay [2], the system named is mice sympathetic nerve endings damaged by 6-hydroxy-dopamine (6-OHDA). The assay is described as follows: adult mice sympathetic nerve endings damaged by 6-OHDA, residual noradrenaline in submaxillary glands. Type of assay: in vivo. The settings on record: 5 mg/kg sc, 6-OHDA 8 mg/kg ip, Kunming female mice; FIG. 3, **P<0.01 vs model control group. The protocol:
The neurotrophic activity of the compounds of the present invention can also be determined in several animal pharmacological models in vivo, such as the model of adult mice sympathetic nerve endings damaged by 6-hydroxy-dopamine (6-OHDA).
Kunming species female mice (♀) having a body weight of 18-22 g are randomly divided into the following groups: normal control group, model control group, FK506 (2 mg/kg) group, and the group of compound of the present invention (5 mg/kg) (10 mice per group). The mice are administrated with 6-OHDA (8 mg/kg) by intraperitoneal injection (ip) before 4 hours and after 4 continuous days of subcutaneous injection (sc) of the compound, while the control groups are administrated with the equivalent quantity of carrier by subcutaneous injection. After two weeks of the last administration, the mice are killed by luxation, and the two submaxillary glands of each of the mice are rapidly excised and weighed, placed in a glass grinder, then is homogenated with a homogenating liquid containing internal-standard, and centrifuged at 2000 g for 30 minutes. 20 μL of the obtained supernatant is directly injected in an HPLC-electrochemical detector to measure the content of noradrenaline (NE) in the submaxillary glands of the mice.

For the molecule `CCOC(=O)C(CC(C)C)NC(=O)[C@@H]1CSCCN1S(=O)(=O)c1ccc(C)cc1` (stereo partly drawn) [Example 4, 2-{[(3R)-4-(4-toluenesulfonyl)thiomorpholine-3-carbonyl]amino}-4-methyl-pentanoic acid ethyl ester], the Average scoring in assay [1] (0.1 pM compound + NGF (0.3 ng/mL)) was determined as 2.15; in assay [1] (1.0 pM compound + NGF (0.3 ng/mL)), 2.16; in assay [1] (10 pM compound + NGF (0.30 ng/mL)), 1.50. Moreover, the “growth of chick embryos dorsal root ganglia processes” value in assay [1] (concentration of from 0.1 to 1.0 pmol/L, with NGF (0.30 ng/ml)) is “promote the growth of chick embryos dorsal root ganglia processes”. In assay [2], the “residual NE level in the submaxillary glands” value was “raise the residual NE level in the submaxillary glands of the mice”.

These data come from US7304057B2, “Substituted 6-membered N-heterocyclic compounds and method for their use as neurological regulator” (Institute of Pharmacology and Toxicology Accademy of …, priority 2001, dated 2007).
